{"source": "patent US7235577B1", "about": "(priority 2000, dated 2007)", "key": {"mKv3.1": {"target": "T1, mKv3.1 (Mus musculus, UniProt P15388)", "T1 construct": "expressed in transfected cells; host or cells: L929", "experiment": "Selectivity patch clamp, L929 cells expressing mKv3.1", "type": "cell-based", "description": "(§1) L929 cells stably expressing mKv1.1, rKv1.2, mKv1.3, and mKv3.1 and MEL cells stably expressing hKv1.5 have been previously described (Grissmer 1994, Mol. Pharmacol. 45: 1227). hKv1.4 and rKv4.2 were stably expressed in LTK (HK1–7). Channel expression was induced 8–12 h before the electrophysiological experiments by 4 μM dexamethasone (Sigma). HEK-293 cells stably expressing the skeletal muscle sodium channel hSkM1 (SCN4A) were generated in the laboratory of Dr. F. Lehmann-Horn. HEK-293 cells stably expressing hSloα were obtained from Dr. Andrew Tinker (Center for Clinical Pharmacology, University College London). L929, MEL, LTK and HEK cells were maintained in DMEM containing 10% heat-inactivated fetal calf serum (Summit Biotechnology, Fort Collins, Colo.) and 250 μg/ml G418 (Life Technologies, Inc.). Rat basophilic leukemia (RBL) cells were maintained in Eagle's minimum essential medium with 2 mM L-glutamine and 10% fetal calf serum. CHO cell were maintained in F12K media (ATCC). Human leukemic Jurkat E6–1 cells were cultured in RPMI 1640 supplemented with 10% fetal calf serum and 1 mM L-glutamine. T84 cells were maintained in a 1:1 mixture of Ham's F12 medium and DMEM with 2.5 mM L-glutamine and 10% fetal calf serum.\n(§2) Recordings from the Jurkat SKCa channel were made in K^+ aspartate Ringer (Na^+ was replaced by K^+) with the same internal pipette solution. […]"}, "human T-lymphocytes": {"system": "human T-lymphocytes", "experiment": "In vitro toxicity, propidium iodide uptake, 48 h", "type": "cell-based", "description": "(§3) The in vitro toxicity was performed as follows."}, "rKv1.2": {"target": "T2, rKv1.2 (Rattus norvegicus, UniProt P63142)", "T2 construct": "expressed in transfected cells; host or cells: L929", "T2 sequence (P63142 whole entry)": "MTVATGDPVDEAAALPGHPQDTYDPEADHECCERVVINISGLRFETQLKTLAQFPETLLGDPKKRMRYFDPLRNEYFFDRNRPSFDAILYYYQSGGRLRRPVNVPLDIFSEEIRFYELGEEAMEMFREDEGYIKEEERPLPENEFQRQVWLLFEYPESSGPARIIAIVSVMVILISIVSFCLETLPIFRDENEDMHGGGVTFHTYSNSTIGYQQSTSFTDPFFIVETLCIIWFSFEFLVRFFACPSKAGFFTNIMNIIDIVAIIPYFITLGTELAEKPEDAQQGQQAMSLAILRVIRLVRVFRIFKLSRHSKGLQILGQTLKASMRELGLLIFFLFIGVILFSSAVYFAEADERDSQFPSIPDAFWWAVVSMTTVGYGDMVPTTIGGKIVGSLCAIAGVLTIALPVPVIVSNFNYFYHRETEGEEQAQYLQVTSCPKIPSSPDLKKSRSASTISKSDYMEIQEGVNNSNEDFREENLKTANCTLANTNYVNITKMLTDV", "experiment": "Selectivity patch clamp, L929 cells expressing rKv1.2", "type": "cell-based", "description": "as §1, §2"}, "BK (hSloα)": {"target": "T3, BK (hSloα) (Homo sapiens, UniProt Q12791)", "T3 construct": "expressed in transfected cells; host or cells: HEK-293", "T3 sequence (Q12791 whole entry)": "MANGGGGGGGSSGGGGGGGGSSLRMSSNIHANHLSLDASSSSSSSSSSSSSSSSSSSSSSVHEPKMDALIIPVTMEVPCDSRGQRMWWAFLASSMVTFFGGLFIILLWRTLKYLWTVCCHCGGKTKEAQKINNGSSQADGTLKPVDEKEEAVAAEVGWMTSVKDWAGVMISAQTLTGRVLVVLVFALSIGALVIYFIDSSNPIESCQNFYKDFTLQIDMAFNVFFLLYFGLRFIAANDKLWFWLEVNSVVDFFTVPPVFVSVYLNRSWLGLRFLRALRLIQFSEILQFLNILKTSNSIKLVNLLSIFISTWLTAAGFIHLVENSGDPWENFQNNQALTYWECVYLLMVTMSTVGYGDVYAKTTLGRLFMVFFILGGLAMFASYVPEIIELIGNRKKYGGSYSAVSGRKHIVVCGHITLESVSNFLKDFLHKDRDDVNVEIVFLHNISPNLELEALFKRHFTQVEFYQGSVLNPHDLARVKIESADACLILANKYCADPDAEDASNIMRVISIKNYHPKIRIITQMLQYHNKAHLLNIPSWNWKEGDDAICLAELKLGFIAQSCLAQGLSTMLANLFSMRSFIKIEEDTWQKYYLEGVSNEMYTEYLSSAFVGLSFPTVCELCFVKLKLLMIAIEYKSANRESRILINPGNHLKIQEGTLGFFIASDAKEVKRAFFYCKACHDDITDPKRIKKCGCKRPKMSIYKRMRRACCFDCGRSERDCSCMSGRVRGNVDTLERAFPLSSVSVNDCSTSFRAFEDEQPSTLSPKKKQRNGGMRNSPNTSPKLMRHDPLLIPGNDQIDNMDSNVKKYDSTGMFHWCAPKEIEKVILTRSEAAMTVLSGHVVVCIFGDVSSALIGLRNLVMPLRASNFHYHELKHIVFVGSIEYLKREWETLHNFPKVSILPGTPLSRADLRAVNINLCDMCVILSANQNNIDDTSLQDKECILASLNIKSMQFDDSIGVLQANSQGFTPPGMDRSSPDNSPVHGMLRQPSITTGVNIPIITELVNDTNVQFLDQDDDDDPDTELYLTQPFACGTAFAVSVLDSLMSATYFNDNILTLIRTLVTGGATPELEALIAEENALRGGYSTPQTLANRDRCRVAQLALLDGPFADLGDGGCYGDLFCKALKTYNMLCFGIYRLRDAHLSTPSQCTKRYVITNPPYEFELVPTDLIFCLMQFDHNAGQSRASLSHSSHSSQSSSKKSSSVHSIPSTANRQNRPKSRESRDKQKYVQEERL", "experiment": "Selectivity patch clamp, HEK-293 cells expressing hSloα (BKCa)", "type": "cell-based", "description": "as §1, §2"}, "hKv1.5": {"target": "T4, hKv1.5 (Homo sapiens, UniProt P22460)", "T4 construct": "expressed in transfected cells; host or cells: MEL", "T4 sequence (P22460 whole entry)": "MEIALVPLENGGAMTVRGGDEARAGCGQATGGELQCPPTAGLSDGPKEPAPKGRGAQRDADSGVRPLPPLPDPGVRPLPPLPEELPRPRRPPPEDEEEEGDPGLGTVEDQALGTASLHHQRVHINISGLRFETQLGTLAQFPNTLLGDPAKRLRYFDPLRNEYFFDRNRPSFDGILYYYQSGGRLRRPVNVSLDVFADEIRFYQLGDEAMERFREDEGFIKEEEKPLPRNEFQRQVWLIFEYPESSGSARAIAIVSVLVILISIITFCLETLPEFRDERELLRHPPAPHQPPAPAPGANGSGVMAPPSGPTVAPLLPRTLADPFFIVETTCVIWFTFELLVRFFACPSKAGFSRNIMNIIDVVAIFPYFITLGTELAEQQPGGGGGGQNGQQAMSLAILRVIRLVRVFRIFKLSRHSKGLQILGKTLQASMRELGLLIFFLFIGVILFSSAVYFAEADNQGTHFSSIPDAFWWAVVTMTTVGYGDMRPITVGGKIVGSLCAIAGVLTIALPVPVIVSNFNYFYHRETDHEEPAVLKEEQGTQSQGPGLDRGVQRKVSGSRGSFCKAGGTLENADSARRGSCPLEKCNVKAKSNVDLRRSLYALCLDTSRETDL", "experiment": "Selectivity patch clamp, MEL cells expressing hKv1.5", "type": "cell-based", "description": "as §1, §2"}, "CF-1 BR mice": {"system": "CF-1 BR mice", "experiment": "ISO acute systemic toxicity study", "conditions": "single i.v. 0.5 mg/kg", "description": "An ISO acute systemic toxicity study was performed in CF-1 BR mice (17–19 g) according to the guidelines of the United States Pharmacopeia XXII. […] Five control mice were injected with an equal volume of the vehicle. The mice were weighed at the beginning of the study and at its termination."}, "mKv1.1": {"target": "T5, mKv1.1 (Mus musculus, UniProt P16388)", "T5 construct": "expressed in transfected cells; host or cells: L929", "T5 sequence (P16388 whole entry)": "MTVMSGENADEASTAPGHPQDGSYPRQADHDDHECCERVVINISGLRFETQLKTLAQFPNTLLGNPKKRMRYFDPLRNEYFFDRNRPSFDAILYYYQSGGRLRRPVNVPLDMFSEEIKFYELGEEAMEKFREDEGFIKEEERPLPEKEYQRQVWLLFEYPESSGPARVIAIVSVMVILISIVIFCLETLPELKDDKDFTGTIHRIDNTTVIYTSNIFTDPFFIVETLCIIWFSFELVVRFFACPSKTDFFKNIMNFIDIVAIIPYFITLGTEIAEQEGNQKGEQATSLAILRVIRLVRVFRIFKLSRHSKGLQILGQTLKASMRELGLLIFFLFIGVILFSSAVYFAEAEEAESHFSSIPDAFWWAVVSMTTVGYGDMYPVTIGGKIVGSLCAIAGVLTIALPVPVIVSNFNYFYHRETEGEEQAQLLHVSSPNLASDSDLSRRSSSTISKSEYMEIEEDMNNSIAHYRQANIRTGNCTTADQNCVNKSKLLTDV", "experiment": "Selectivity patch clamp, L929 cells expressing mKv1.1", "type": "cell-based", "description": "as §1, §2"}, "[1]": {"target": "Kv1.1–1.5, Kv3.1, Kv4.2, Jurkat-SKCa, BKCa, hSKM1-Na, CRAC and lymphocyte chloride channels", "experiment": "Selectivity on other cloned and native ion channels", "type": "cell-based", "conditions": "all channels of the panel", "description": "as §1, §2"}, "L929 cells": {"system": "L929 cells", "experiment": "In vitro toxicity, propidium iodide uptake, 48 h", "type": "cell-based, murine", "description": "as §3"}, "MEL cells": {"system": "MEL cells", "experiment": "In vitro toxicity, propidium iodide uptake, 48 h", "type": "cell-based, murine", "description": "as §3"}, "rKv4.2": {"target": "T6, rKv4.2 (Rattus norvegicus, UniProt Q63881)", "T6 construct": "expressed in transfected cells; host or cells: LTK (dexamethasone-induced)", "T6 sequence (Q63881 whole entry)": "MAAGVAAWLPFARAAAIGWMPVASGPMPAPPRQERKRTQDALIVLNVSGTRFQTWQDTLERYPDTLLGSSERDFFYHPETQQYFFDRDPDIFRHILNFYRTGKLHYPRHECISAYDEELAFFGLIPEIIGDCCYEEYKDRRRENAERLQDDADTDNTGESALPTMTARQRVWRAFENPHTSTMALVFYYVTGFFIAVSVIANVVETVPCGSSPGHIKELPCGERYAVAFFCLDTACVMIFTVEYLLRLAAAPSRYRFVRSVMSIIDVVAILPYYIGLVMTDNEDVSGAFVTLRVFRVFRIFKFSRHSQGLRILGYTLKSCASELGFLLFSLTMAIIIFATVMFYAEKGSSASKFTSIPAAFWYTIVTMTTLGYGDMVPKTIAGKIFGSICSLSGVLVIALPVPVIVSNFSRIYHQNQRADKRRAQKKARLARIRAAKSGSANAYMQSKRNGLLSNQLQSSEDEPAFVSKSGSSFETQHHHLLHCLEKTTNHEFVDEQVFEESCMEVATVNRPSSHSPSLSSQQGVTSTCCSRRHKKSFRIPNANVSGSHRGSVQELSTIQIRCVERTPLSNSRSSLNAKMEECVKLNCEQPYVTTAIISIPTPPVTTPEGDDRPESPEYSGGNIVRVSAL", "experiment": "Selectivity patch clamp, LTK cells expressing rKv4.2", "type": "cell-based", "description": "as §1, §2"}, "mKv1.3": {"target": "T7, mKv1.3 (Mus musculus, UniProt P16390)", "T7 construct": "expressed in transfected cells; host or cells: L929", "T7 sequence (P16390 whole entry)": "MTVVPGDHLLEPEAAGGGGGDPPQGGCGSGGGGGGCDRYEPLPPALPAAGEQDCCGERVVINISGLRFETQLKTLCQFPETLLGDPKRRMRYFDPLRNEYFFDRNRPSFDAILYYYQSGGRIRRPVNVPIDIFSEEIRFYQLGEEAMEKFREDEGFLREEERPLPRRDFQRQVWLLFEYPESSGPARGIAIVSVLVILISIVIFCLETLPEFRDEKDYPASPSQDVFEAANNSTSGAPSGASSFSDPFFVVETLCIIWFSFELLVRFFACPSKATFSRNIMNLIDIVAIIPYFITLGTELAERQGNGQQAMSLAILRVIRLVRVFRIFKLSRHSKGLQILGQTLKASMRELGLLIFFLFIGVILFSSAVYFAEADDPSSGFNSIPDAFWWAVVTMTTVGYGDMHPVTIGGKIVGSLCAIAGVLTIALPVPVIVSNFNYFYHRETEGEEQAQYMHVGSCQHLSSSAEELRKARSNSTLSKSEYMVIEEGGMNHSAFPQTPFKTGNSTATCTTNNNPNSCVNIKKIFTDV", "experiment": "Selectivity patch clamp, L929 cells expressing mKv1.3", "type": "cell-based", "description": "as §1, §2"}, "Jurkat-CRAC": {"target": "Jurkat-CRAC", "experiment": "Selectivity patch clamp, Jurkat CRAC channels", "type": "cell-based, human", "conditions": "monovalent currents with Na+ as charge carrier", "description": "as §1, §2"}, "COS-7 cells": {"system": "COS-7 cells", "experiment": "In vitro toxicity, propidium iodide uptake, 48 h", "type": "cell-based, African green monkey", "description": "as §3"}, "Jurkat E6-1 cells": {"system": "Jurkat E6-1 cells", "experiment": "In vitro toxicity, propidium iodide uptake, 48 h", "type": "cell-based, human", "description": "as §3"}, "NGP cells": {"system": "NGP cells", "experiment": "In vitro toxicity, propidium iodide uptake, 48 h", "type": "cell-based, human", "description": "as §3"}, "RBL-2H3 cells": {"system": "RBL-2H3 cells", "experiment": "In vitro toxicity, propidium iodide uptake, 48 h", "type": "cell-based, rat", "description": "as §3"}, "HSKM1": {"target": "T8, HSKM1 (Homo sapiens, UniProt P35499)", "T8 construct": "expressed in transfected cells; host or cells: HEK-293", "experiment": "Selectivity patch clamp, HEK-293 cells expressing skeletal muscle sodium channel hSkM1 (SCN4A)", "type": "cell-based", "description": "as §1, §2"}, "rKir2.1": {"target": "T9, rKir2.1 (Rattus norvegicus, UniProt Q64273)", "T9 construct": "endogenous in cells; host or cells: RBL (rat basophilic leukemia)", "T9 sequence (Q64273 whole entry)": "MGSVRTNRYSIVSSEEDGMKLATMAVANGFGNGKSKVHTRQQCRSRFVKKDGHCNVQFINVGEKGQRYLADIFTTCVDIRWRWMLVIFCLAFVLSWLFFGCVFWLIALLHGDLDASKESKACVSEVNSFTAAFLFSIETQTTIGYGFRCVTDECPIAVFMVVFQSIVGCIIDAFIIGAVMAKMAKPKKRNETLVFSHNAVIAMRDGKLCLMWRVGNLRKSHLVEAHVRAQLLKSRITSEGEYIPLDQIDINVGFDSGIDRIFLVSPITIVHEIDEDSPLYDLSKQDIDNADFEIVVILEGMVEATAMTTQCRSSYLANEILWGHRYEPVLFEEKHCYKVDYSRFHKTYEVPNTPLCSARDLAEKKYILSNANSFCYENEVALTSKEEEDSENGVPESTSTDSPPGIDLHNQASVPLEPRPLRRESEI", "experiment": "Selectivity patch clamp, RBL inward rectifier", "type": "cell-based", "conditions": "RBL cells; slope conductance at −110 mV", "description": "as §1, §2"}, "[2]": {"experiment": "Hydrolytic stability by HPLC", "conditions": "for stability against hydrolysis: over 72 h", "description": "A Waters 590 liquid chromatograph with a Waters 746 integrator and a Waters 486 UVN is detector, and a 25 cm Lichrospher RP18 column (5-μM particle size) was used. The mobile phase consisted of K2HPO4 25 mM, KH2PO4 30 mM, methanol at 262:13:725. The chromatographic separation was performed at 20° C. with a flow rate of 1.0 ml/min, the absorbance of the elluent was monitored at 210 nm.\nHydrolysis profiles (10 μM compound with 20% acetonitrile) were carried out in Soerensen phosphate buffer (pH 7.4 and pH 5.0) in a total volume of 10 ml. 100 μl samples were collected 0, 1, 2, 3, 4, 5, 24, 48 and 72 hours after incubation, with shaking, in a waterbath at 37° C. and manually injected into the HPLC over Rheodyne 7125 system. For profiles at pH 1.0 artificial stomach fluid (DAB 9), containing 2 g NaCl, 3,2 g pepsin and 80 ml 1 M HCL in 1.0 L of water was used. After 0, 1 and 2 hours 400 μl of sample were collected and extracted three times with 500 μl of ethyl ether by vortexing. The combined extracts were than evaporated to dryness by passing nitrogen through the solution. The residue was than dissolved in 400 μl of mobile phase of which […] were injected in the HPLC."}}, "data": [{"smiles": "Clc1ccccc1C(c1ccccc1)(c1ccccc1)n1cccn1", "note": "[Compound T34, 1-[(2-Chlorophenyl)diphenylmethyl]-1H-pyrazole]", "values": [{"measurement": "Kd", "setting": "mKv3.1", "result": "30 ± 5", "unit": "µM"}, {"measurement": "percentage of dead cells (PI uptake)", "setting": "human T-lymphocytes; 2 μM", "result": 6.2, "unit": "%"}, {"measurement": "percentage of dead cells (PI uptake)", "setting": "human T-lymphocytes; 5 μM", "result": 7.0, "unit": "%"}, {"measurement": "Kd", "setting": "rKv1.2", "result": "4.5 ± 0.52", "unit": "µM"}, {"measurement": "Kd", "setting": "BK (hSloα)", "result": "25 ± 1.8", "unit": "µM"}, {"measurement": "Kd", "setting": "hKv1.5", "result": "7 ± 0.62", "unit": "µM"}, {"measurement": "clinical appearance", "setting": "CF-1 BR mice; 7-day study", "result": "all animals appeared clinically normal"}, {"measurement": "mortality", "setting": "CF-1 BR mice; 7-day study", "result": "no mortality"}, {"measurement": "body weight on day 1", "setting": "CF-1 BR mice; day 1", "result": 17.8, "unit": "g"}, {"measurement": "body weight on day 7", "setting": "CF-1 BR mice; day 7", "result": 27.0, "unit": "g"}, {"measurement": "Kd", "setting": "mKv1.1", "result": "9.5 ± 1", "unit": "µM"}, {"measurement": "logP", "setting": "logP", "result": 4}, {"measurement": "Kd", "setting": "[1]", "result": "≥ 5", "unit": "µM"}, {"measurement": "percentage of dead cells (PI uptake)", "setting": "L929 cells; 2 μM", "result": 4.6, "unit": "%"}, {"measurement": "percentage of dead cells (PI uptake)", "setting": "L929 cells; 5 μM", "result": 7.5, "unit": "%"}, {"measurement": "percentage of dead cells (PI uptake)", "setting": "MEL cells; 2 μM", "result": 6.2, "unit": "%"}, {"measurement": "percentage of dead cells (PI uptake)", "setting": "MEL cells; 5 μM", "result": 5.8, "unit": "%"}, {"measurement": "Kd", "setting": "rKv4.2", "result": "6 ± 0.87", "unit": "µM"}, {"measurement": "Kd", "setting": "mKv1.3", "result": "5 ± 0.35", "unit": "µM"}, {"measurement": "Block of Jurkat-CRAC (Ca)", "setting": "Jurkat-CRAC", "result": "no effect at 10 μM"}, {"measurement": "percentage of dead cells (PI uptake)", "setting": "COS-7 cells; 2 μM", "result": 3.6, "unit": "%"}, {"measurement": "percentage of dead cells (PI uptake)", "setting": "COS-7 cells; 5 μM", "result": 4.5, "unit": "%"}, {"measurement": "percentage of dead cells (PI uptake)", "setting": "Jurkat E6-1 cells; 2 μM", "result": 2.5, "unit": "%"}, {"measurement": "percentage of dead cells (PI uptake)", "setting": "Jurkat E6-1 cells; 5 μM", "result": 3.2, "unit": "%"}, {"measurement": "percentage of dead cells (PI uptake)", "setting": "NGP cells; 2 μM", "result": 10.9, "unit": "%"}, {"measurement": "percentage of dead cells (PI uptake)", "setting": "NGP cells; 5 μM", "result": 5.9, "unit": "%"}, {"measurement": "percentage of dead cells (PI uptake)", "setting": "RBL-2H3 cells; 2 μM", "result": 7.9, "unit": "%"}, {"measurement": "percentage of dead cells (PI uptake)", "setting": "RBL-2H3 cells; 5 μM", "result": 8.8, "unit": "%"}, {"measurement": "Kd", "setting": "HSKM1", "result": "8 ± 0.6", "unit": "µM"}, {"measurement": "Block of rKir2.1", "setting": "rKir2.1", "result": "no effect at 10 μM"}, {"measurement": "half-life", "setting": "[2]; artificial stomach fluid (DAB 9), pH 1", "result": "~45", "unit": "min"}, {"measurement": "stability against hydrolysis", "setting": "[2]; pH 5.0, 37° C.", "result": "completely stable"}, {"measurement": "stability against hydrolysis", "setting": "[2]; pH 7.4, 37° C.", "result": "completely stable"}, {"measurement": "stability against hydrolysis", "setting": "[2]; pH 10", "result": "completely stable"}]}]}
